Data set [1] deals with trypsin. Kind of data set: Trypsin activity assay (rate of hydrolysis of BAEE to BA, UV). The data set is classed as biochemical. Particulars: for Trypsin activity (%): 0.5 μg of trypsin in 50 mM ammonium bicarbonate, pH 7.9, no additive = 100.
Method: Trypsin activity measurements were carried out by introducing 1 μg/ml of trypsin to 0.25 mM N-α-benzoyl-L-arginine ethyl ester (BAEE, pH 7.9) at room temperature. Changes in trypsin activity were plotted by measuring the rate of hydrolysis of BAEE to a UV active product, BA, at A 252 nm.
For data set [2], the target named is T1, horse skeletal muscle myoglobin (Equus caballus, UniProt P68082).
T1 construct: horse skeletal muscle myoglobin (Sigma. P/N M0630); purchased Sigma M0630; host or cells: horse skeletal muscle
The data set can be described thus: Mass spectrometric detection of myoglobin treated with ALS or SDS (electrospray). Particulars: 5 μM myoglobin with 0.1% surfactant; ALS degraded in 10% acetic acid for 16 hours. The procedure:
Mass spectrometric detection was performed on myoglobin using a Platform LC (Micromass, Manchester, UK) with constant infusion. A stock solution of 50 μM horse skeletal muscle myoglobin (Sigma. P/N M0630) was prepared in 50/50 20 mM ammonium acetate, pH 5.1/acetonitrile (v/v). A stock solution of 1% SDS and 1% ALS were also prepared in both 50/50 ammonium acetate/acetonitrile, and 40/40/10 ammonium acetate/acetonitrile/glacial acetic acid. The surfactant stock solutions were both prepared fresh, and allowed to sit for at least 16 hours. To 100 μL of each of the surfactant stock solutions was added 100 μL of myoglobin stock and 800 μL 50/50 ammonium acetate/acetonitrile. Each solution was then drawn into a 1 mL syringe and placed in a syringe pump (Harvard Instruments). The solution was infused into the mass spectrometer at a flow rate of 20 μL/min. Mass spectrometer settings were as follows:
Gas flow rate: 340 L/h; Source temperature: 100° C., Capillary voltage: 3.46 kV; Cone voltage: 25 V; Ion energy: 0.6; Scan rate: 3.0 sec/scan; Scan range: 250-1600 amu.

For data set [3] the following is noted: pH 7.
From the text: After the chemical reaction proceeds, the surfactant of the present invention involved in enhancing the chemical reaction can be degraded, e.g., by contact with an acidic solution.
The target of data set [4] is T2, Lys-C (Lysobacter enzymogenes, UniProt Q7M135).
T2 construct: purchased Roche Diagnostics
The data set can be described thus: Comparative digestion of myoglobin with Lys-C. It counts as biochemical. The note with it: with ALS, no observable digestion without ALS. The procedure: (§1) Proteins (2-20 μM), indicated in Table 2, were solubilized in 50 mM NH4HCO3 or 0.1-0.25% (w/w) ALS before tryptic digestion. The trypsin to protein ratio used was 1-2%. The protein (˜17 μM) was solubilized with 8M urea or 0.25% ALS. After tryptic digestion, ALS was destroyed rapidly by addition of strong acid such as HCl or TFA. The by-products were removed by centrifugation prior to MS analysis. Protein digests were mass analyzed either by a MALDI.TOF mass spectrometer (M@LDI™ LR, Micromass UK Ltd) or separated by RP-HPLC (CapLC®, Waters Corporation) then interfaced to an orthogonal acceleration TOF mass spectrometer (LCT™, Micromass UK Ltd) via an electrospray ionization source.
(§2) Myoglobin comparative digestion was performed as in Example 3 (in the presence and absence of ALS), with the exchange of the following proteases for trypsin: • A. Asp-N (FIG. 4A) • B. Lys-C (FIG. 4B) • C. Glu-C (FIG. 4C) Digestions were performed for about 50 minutes. The enzymes were purchased from Roche Diagnostics. Analysis is shown in FIGS. 4A-4C, as indicated above. In each case, when no ALS was in the digestion solution, no observable digestion took place. However, with ALS, within about 50 minutes, the entire protein was consumed.

Data set [5] concerns the target T3, Glu-C (Staphylococcus aureus, UniProt P0C1U8).
T3 construct: purchased Roche Diagnostics
Kind of data set: Comparative digestion of myoglobin with Glu-C. The note with it: with ALS, no observable digestion without ALS. It counts as biochemical. The procedure:
as §1, §2

T1 sequence (P68082 whole entry): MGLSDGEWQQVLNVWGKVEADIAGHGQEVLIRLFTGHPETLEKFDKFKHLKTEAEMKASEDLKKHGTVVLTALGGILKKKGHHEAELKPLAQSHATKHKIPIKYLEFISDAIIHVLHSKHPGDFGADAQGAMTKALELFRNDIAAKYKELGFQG
T2 sequence (Q7M135 whole entry): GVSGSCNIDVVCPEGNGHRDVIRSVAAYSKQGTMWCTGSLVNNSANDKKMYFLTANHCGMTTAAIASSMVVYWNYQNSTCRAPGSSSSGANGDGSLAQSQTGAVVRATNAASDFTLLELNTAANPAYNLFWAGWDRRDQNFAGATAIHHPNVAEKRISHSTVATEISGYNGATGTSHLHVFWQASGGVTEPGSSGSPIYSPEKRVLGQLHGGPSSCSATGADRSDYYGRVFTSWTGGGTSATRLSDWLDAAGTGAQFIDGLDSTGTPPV
T3 sequence (P0C1U8 69-336): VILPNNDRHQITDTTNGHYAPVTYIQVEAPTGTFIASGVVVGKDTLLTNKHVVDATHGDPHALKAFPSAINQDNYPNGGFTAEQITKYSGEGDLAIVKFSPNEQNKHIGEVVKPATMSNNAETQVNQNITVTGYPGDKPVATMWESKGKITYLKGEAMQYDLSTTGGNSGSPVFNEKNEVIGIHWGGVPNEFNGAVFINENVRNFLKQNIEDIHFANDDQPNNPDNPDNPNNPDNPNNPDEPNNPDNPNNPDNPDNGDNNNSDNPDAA

As to `CC#N` [Acetonitrile], in data set [1] (additive at 50%), the “Trypsin activity (%)” value was 92%.
`CO` [Methanol]: the “Trypsin activity (%)” value in data set [1] (additive at 50%) came out at 31%.
Turning to `CCCCCCCCCCCCOS(=O)(=O)[O-].[Na+]` [SDS, sodium dodecylsulfate], the entries for the “Trypsin activity (%)” value in data set [1] (additive at 0.1%) and in data set [1] (additive at 0.5%) were 20% and 1%, respectively. Moreover, the “Effect on trypsin activity (in words)” value in data set [1] (each of the percentages examined) is given as “inhibits trypsin activity”. Further, the “Myoglobin signal in electrospray mass spectrum” value in data set [2] was “no signals due to myoglobin are observed”.
Consider `NC(N)=O` [Urea], for which the entries for the “Trypsin activity (%)” value in data set [1] (additive at 2M) and in data set [1] (additive at 4M) were 85% and 71%, respectively.
Turning to “sodium 4-[(2-methyl-2 undecyl-1,3-dioxolan-4-yl)methyl]-1-propanesulfonate [ALS]”, the “Stability of the surfactant” value in data set [3] is “stable”. The “Time until the entire protein (myoglobin) was consumed” value in data set [4] and in data set [5] was at most 50 min in each case. The “Effect on trypsin activity (in words)” value in data set [1] (ALS added to the trypsin solution containing SDS) was “increase in trypsin activity”. Moreover, the entries for the “Trypsin activity (%)” value in data set [1] (additive at 0.1%) and in data set [1] (additive at 0.5%) were 99% and 87%, respectively. In data set [2], the “Myoglobin signal in electrospray mass spectrum” value is “strong myoglobin signal”.
